For data set [1], the system named is Wistar Han (W-H) IGS rats. As to the kind of experiment: Heart rate in vivo in rats after s.c. bolus. Conditions: up to 0.3 mg/kg, compared to formoterol. Further details: species or system rat. From the text:
Wistar Han (W-H) IGS (International Genetic Standard) rats (Crl:WI(Han)) were purchased from Charles River Laboratories. Femoral arterial and venous catheters were chronically implanted and exteriorized through a spring tether-swivel system and housed in specialized cages. Arterial catheter was connected to a pressure transducer to continuously measure pulse pressure, mean arterial pressure and heart rate, which was derived from the blood pressure signal, via a digital data acquisition system. Compounds were administered via s.c catheter implanted through the skin buttun. Values are expressed as means±SEM (n=3).

Data set [2] in a line: Comparative solubilities in H2O with pH adjustment. It is filed as physicochemical. As to the method: The relative solubilities of the free base form and the acetate and glycolate salt forms of Compound A were analysed and the results are show in the table below. Solutions were titrated with addition of HCl or NaOH for pH adjustment. The improved aqueous solubilities of the acetate and glycolate salt forms relative to the free base form of Compound A make the acetate and glycolate salts of Compound A more suitable for subcutaneous injection or infusion.

Another data set addresses T1, Serotonin 5-HT2C (Homo sapiens, UniProt P28335).
T1 construct: expressed in transfected cells; host or cells: CHO-K1 cells coexpressing mitochondrial apoaequorin and Gα16
Description: Aequorin agonist assay in CHO-K1 cells expressing recombinant Serotonin 5-HT2C and Gα16. It is filed as cell-based.

Another data set concerns the target T2, α1A AR (Homo sapiens, UniProt P35348).
T2 sequence (P35348 1-466): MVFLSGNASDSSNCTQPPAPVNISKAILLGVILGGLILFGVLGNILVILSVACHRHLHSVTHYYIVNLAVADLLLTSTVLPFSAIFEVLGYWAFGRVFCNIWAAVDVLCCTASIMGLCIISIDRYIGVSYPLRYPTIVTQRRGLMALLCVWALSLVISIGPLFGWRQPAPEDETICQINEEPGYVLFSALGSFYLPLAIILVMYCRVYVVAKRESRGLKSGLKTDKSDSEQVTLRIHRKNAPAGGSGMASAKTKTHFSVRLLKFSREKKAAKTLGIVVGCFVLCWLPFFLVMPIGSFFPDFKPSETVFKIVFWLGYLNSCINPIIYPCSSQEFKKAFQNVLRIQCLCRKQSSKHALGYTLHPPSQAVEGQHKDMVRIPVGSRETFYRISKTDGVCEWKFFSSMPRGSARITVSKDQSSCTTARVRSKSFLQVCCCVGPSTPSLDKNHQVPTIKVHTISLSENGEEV
As to the kind of experiment: Ca2+ FLIPR assay in human adrenergic Alpha1A CHO-K1 cell line (Test 1). It is filed as cell-based. Particulars: read-out: CHO cells EC50 α1A AR.

For the next data set, the system named is Rhesus monkeys. As to the kind of experiment: Heart rate in vivo in rhesus monkeys after single s.c. administration. Further details: species or system rhesus monkey. Conditions: s.c. bolus, up to 0.03 mg/kg; compared to formoterol. As to the method: Rhesus monkeys, 24 females with body weight around 4 to 8 kg, were randomized into 4 groups of n=6. The animals were restrained on a chair up to 4 hours after single subcutaneous administration of compounds, and then returned to their pens. Heart rates were measured using a Surgivet V3304 device. Values are expressed as means±SEM (n=6).

Data set [3] relates to isolated Langendorff perfused rabbit hearts. Description: Automaticity in isolated Langendorff perfused rabbit hearts.
The subject of data set [4] is isolated rabbit sino-atrial nodes. As to the kind of experiment: Sino-atrial node beating rate in isolated rabbit right atrium.
Description: New Zealand white female rabbits were killed by exsanguination after a deep anesthesia using a mixture of ketamine/xylazine, i.v. The heart was quickly removed and placed in Tyrode's solution. […] The right atrium was separated from the rest of the heart. The preparations were mounted in a tissue bath and kept at 37±0.5° C. for at least one hour stabilization. Action potentials (AP) were intracellularly recorded with a standard glass microelectrode filled with 3 M KCl, connected to a high input impedance-neutralizing amplifier (VF-180 microelectrode amplifier, Bio-Logic). […] After one hour of stabilization, compounds were added to the Tyrode's solution at the increasing concentrations, each concentration being maintained for 30 minutes. There was no wash-out between two concentrations. Electrophysiological measurements were made by analyzing action potentials during the experimental protocol at the end of the 30 minute perfusion period. The SA spontaneous frequency was evaluated by counting the number of beats every 10 seconds to express the results in number of beats per minute (bpm). Data were expressed as mean±SEM.
The target in a further data set is β2 AR (Homo sapiens, UniProt P07550). As to the kind of experiment: cAMP response in CHO cells stably transfected with human β2 adrenoceptor (Test 1).

Some results are limits rather than exact numbers.

T1 sequence (P28335 33-458): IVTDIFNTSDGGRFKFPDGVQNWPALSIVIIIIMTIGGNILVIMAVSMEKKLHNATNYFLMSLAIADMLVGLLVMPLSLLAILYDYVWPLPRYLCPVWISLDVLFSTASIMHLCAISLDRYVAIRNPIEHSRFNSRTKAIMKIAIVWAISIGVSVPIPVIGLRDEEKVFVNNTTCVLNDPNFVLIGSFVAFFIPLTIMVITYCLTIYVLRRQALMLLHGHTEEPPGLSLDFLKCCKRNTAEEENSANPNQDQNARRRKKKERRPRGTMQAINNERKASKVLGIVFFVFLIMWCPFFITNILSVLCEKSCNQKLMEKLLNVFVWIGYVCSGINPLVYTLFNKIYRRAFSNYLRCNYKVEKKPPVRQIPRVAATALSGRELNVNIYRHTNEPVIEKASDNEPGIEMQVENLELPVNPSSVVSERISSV
β2 AR, sequence (P07550 whole entry): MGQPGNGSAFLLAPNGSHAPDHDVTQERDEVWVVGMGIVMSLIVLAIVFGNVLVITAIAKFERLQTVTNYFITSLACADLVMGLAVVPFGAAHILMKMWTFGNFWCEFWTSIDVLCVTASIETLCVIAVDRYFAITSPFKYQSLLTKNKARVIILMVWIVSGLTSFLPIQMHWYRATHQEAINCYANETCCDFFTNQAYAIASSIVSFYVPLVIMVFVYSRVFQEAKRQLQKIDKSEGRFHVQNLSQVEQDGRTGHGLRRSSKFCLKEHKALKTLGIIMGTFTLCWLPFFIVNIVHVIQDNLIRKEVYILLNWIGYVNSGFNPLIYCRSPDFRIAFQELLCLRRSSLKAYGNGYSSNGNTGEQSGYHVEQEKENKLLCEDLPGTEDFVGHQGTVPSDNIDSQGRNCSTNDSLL
Description for Serotonin 5-HT2C: CHO-K1 cells coexpressing mitochondrial apoaequorin, recombinant Serotonin 5-HT2Cne and the promiscuous G protein Gα16, grown to mid-log phase in culture media without antibiotics were detached with PBS-EDTA, centrifuged and resuspended in assay buffer (DMEM/HAM's F12 with HEPES, without phenol red+0.1% BSA protease free) at a concentration of 1×10^6 cells/ml. Cells were incubated at room temperature for at least 4 h with coelenterazine h. […] For agonist testing, 50 μL of cell suspension were mixed with 50 μL of test or reference agonist in a 96-well plate. The resulting emission of light is recorded using Hamamatsu Functional Drug Screening System 6000 (FDSS 6000) luminometer. Agonist activity of test compound was expressed as a percentage of the activity of the reference agonist at its EC100 concentration.
Description for α1A AR: Compounds acting as agonists induce a transient increase of intracellular calcium. This was recorded on the FLIPR system. A measurement of the signal baseline was first recorded every second for 2 minutes before the injection of the compounds. […] Low controls (unstimulated cells) were determined with the addition of 5 μL of assay buffer.

Consider `CCCCOc1ccc(CC(C)(C)NC[C@H](O)c2cc(O)cc3[nH]c(=O)sc23)cc1.O=C(O)CO` [Compound A glycolate salt, (R)-7-(2-(1-(4-butoxyphenyl)-2-methylpropan-2-ylamino)-1-hydroxyethyl)-5-hydroxybenzo[d]thiazol-2(3H)-one glycolate salt], for which the melting point is ~ 188 °C.

For the molecule `CCCCOc1ccc(CC(C)(C)NC[C@H](O)c2cc(O)cc3[nH]c(=O)sc23)cc1` [Compound A, (R)-7-(2-(1-(4-butoxyphenyl)-2-methylpropan-2-ylamino)-1-hydroxyethyl)-5-hydroxybenzo[d]thiazol-2(3H)-one], the “heart rate change in rats” value in [1] is recorded as “less heart rate increases”. The “Compound A free base solubility in H2O, Conc” value in [2] (pH 7.3) and in data set [2] (pH 7.8) was under 10 µg/mL in each case. Besides, on Serotonin 5-HT2C, the “fold less active on 5-HT2C when compared to the racemate or the (S) enantiomer” value is on record as “over 10 fold”. For the same molecule, on Serotonin 5-HT2C (5-HT2C EC50 versus β2 AR EC50), the “fold less active on 5-HT2C when compared to β2 AR agonist activity” value was 50 fold. Further, the EC50 at α1A AR is over 10 µM; on β2 AR it was under 0.01 µM. Also, in the data set on Rhesus monkeys, the “heart rate change in rhesus monkeys” value is “less heart rate increase”. In data set [3] (compared to Formoterol), the “direct effects on the pacemaker activity” value is on record as “less direct effects”. In data set [3] (isolated rabbit heart), the “Automaticity, maximum increase (n = 3)” value is “+17%”. Moreover, the “Sino-Atrial node beating rate, maximum increase (n = 6)” value in data set [4] is recorded as “+6.2%”.

The EC50 is the concentration giving half of the maximal effect.
